Data on two molecules can be found in patent US20250009841A1, “Methods of Diagnosing and Managing Bleeding Disorders” (Emory University, priority 2023, published 2025).

The test concerns healthy donor platelets. The experiment in a line: Monoclonal antibody contraction experiments on the platelet contraction cytometer. The test is classed as cell-based, human. The conditions noted are these: 2.5 μg/mL monoclonal antibody. Here is the method: Blood was drawn into acid-citrate-dextrose (ACD) solution 2 (VWR) and was subsequently centrifuged at 150 G for 15 min without brake and the resulting platelet rich plasma (PRP) was centrifuged again with an additional 10% ACD by volume at 900 G for 5 min without brake. The supernatant, platelet poor plasma, was discarded or utilized to isolate patient polyclonal IgG antibodies. The platelet pellet was resuspended into HEPES modified buffer and was gel filtered into this same buffer using a gel filtration column. Platelets were then diluted to 2 million/mL prior to contraction cytometry to reduce paracrine signaling and minimize platelet aggregate formation.
Each contraction cytometer contains large arrays of fibrinogen microdots pairs that are patterned onto a polyacrylamide hydrogel with a stiffness of about 75 k Pa. […] These values for microdot size and spacing ensured that platelets preferentially attached to the microdots and were able to spread to neighboring microdot in the microdot pair and contract. […]
Platelet contraction was imaged on a confocal microscope using a 20×/0.8 NA lens. […] Images were analyzed using a script which calculated the center-to-center distance between fibrinogen microdots. […] Traction forces (T) of individual platelets were calculated as: T=2πGa (xs−xf)/2−v. […]

In the case of PAC-1, the “effect on platelet contractile force” value (15 minutes prior to thrombin activation) is reported as “lowers contractile forces”.

B1: abciximab (antibody, chains of the INN, looked up, V domains shown)
VH: EVQLQQSGTVLARPGASVKMSCEASGYTFTNYWMHWVKQRPGQGLEWIGAIYPGNSDTSYIQKFKGKAKLTAVTSTTSVYMELSSLTNEDSAVYYCTLYDGYYVFAYWGQGTLVTVSA
VL: EIVLTQSPVTLSVTPGDSVSLSCRASRDISNNLHWFQQTSHESPRLLIKYASQSMSGIPSRFSGSGSGTDFTLSINSVETEDFGMYFCQQTNSWPYTFGGGTKLEIK
As to B1, the “effect on platelet adhesion” value (fibrinogen microdots) was “blocks adhesion”.
